Results as given in ChEMBL document CHEMBL4043084, “Indole Alkaloids from Hunteria zeylanica” (J Nat Prod, 2017).
Activity calls are given as the source filed them. The calls are words filed in the database; no cut-off is given here.

What was measured:
A549 = experiment: Cytotoxicity against human A549 cells assessed as reduction in cell viability at 0.0624 to 40 uM incubated for 48 hrs by MTT assay; assay type: functional, cell-based
SGC-7901 = experiment: Cytotoxicity against human SGC7901 cells assessed as reduction in cell viability at 0.0624 to 40 uM incubated for 48 hrs by MTT assay; assay type: functional, cell-based
HeLa = experiment: Cytotoxicity against human HeLa cells assessed as reduction in cell viability at 0.0624 to 40 uM incubated for 48 hrs by MTT assay; assay type: functional, cell-based
Rhodobium porosum = experiment: Insecticidal activity against Rhodobium porosum adults placed on 5 secs compound pre-treated bean leaves after 1 day by leaf dipping protocol based method; assay type: functional

| Compound | Activity (A549) | Activity (SGC-7901) | Activity (HeLa) | LC50 (Rhodobium porosum) |
| --- | --- | --- | --- | --- |
| C/C=C1/C[N@@+]2(C)CCc3c([nH]c4ccc(O)c([C@H]5C[C@H]6[C@@]7(C(=O)OC)CO[C@H](N(C)[C@H]7Cc7c5[nH]c5ccccc75)[C@@]65O[C@H]5C)c34)[C@@H]2C[C@@H]1CCO | inactive | inactive | inactive | – |
| C=C[C@H]1CN2CCc3c([nH]c4ccc(O)cc34)[C@@H]2C[C@@H]1CCO | inactive | inactive | inactive | 168 µM |
| C/C=C1/CN2CC[C@@]34CN5c6c(cccc6[C@@]67CC[N+]8([O-])CCC[C@@]9(CC[C@@]56[C@H]9C)[C@@H]78)[C@@]35[C@@H]2CC1[C@@H](C(=O)OC)N5c1ccccc14 (some centres not stated) | inactive | inactive | inactive | – |
| C/C=C1/CN2CC[C@@]34CN5c6c(cccc6[C@@]67CCN8CCC[C@@]9(CC[C@@]56[C@H]9C)[C@H]87)[C@@]35[C@@H]2CC1[C@@H](C(=O)OC)N5c1ccccc14 | inactive | inactive | inactive | – |
| C/C=C1/C[N@@+](C)([O-])[C@H]2Cc3c4n(c5ccccc35)C35[C@@H]6C[C@H]7/C(=C\C)CN6CCC3(c3ccccc3N5[C@@H]7C(=O)O)[C@H]4CC1[C@H]2C(=O)OC (some centres not stated) | inactive | inactive | inactive | – |
| C/C=C1/CN2CCc3c([nH]c4ccccc34)[C@@H]2C[C@@H]1[C@H](CO)C(=O)OC | inactive | inactive | inactive | – |
| C/C=C1/CN2CCc3c4n(c5ccccc35)[C@H](C(=O)OC)[C@@H]1C[C@@H]42 | inactive | inactive | inactive | – |
| C=C[C@H]1CN2CCc3c([nH]c4ccc(O)c([C@H]5C[C@@H]6/C(=C\C)CN(C)[C@@H](Cc7c5[nH]c5ccccc75)[C@@]6(CO)C(=O)OC)c34)[C@@H]2C[C@@H]1CCO | inactive | inactive | inactive | – |
| C/C=C1/CN(C)[C@H]2Cc3c([nH]c4ccccc34)[C@@H](c3cc4[nH]c5c(c4cc3O)CCN3C[C@H](CC)[C@@H](CCO)C[C@@H]53)C[C@H]1[C@]2(CO)C(=O)OC | inactive | inactive | inactive | – |
| C/C=C1/CN2CCc3c([nH]c4ccc(O)c([C@H]5C[C@@H]6/C(=C\C)CN(C)[C@@H](Cc7c5[nH]c5ccccc75)[C@@]6(CO)C(=O)OC)c34)[C@@H]2C[C@@H]1CCO | inactive | inactive | inactive | – |
| CC[C@]12CCCN3CC[C@]4(C(=C(C(=O)OC)C1)Nc1ccccc14)[C@@H]32 | inactive | inactive | inactive | – |
| O=[N+]([O-])/N=C1\NCCN1Cc1ccc(Cl)nc1 | – | – | – | 49 µM |
| CC[C@@]12CCCN3CCc4c(n(c5ccccc45)[C@@H](OC)C1)[C@H]32 | inactive | inactive | inactive | – |
| C/C=C1/C[N@@+]2(C)CCc3c([nH]c4ccc(O)c([C@H]5C[C@@H]6/C(=C\C)CN(C)[C@@H](Cc7c5[nH]c5ccccc75)[C@@]6(CO)C(=O)OC)c34)[C@@H]2C[C@@H]1CCO | inactive | inactive | inactive | – |
| CC[C@H]1CN2CCc3c([nH]c4ccccc34)[C@@H]2C[C@@H]1CCO | inactive | inactive | inactive | 291 µM |
| C/C=C1/C[N@+]2(C)CCc3c([nH]c4ccccc34)C[C@H]1CC2 | inactive | inactive | inactive | – |
| O[C@H]1CC[C@H]2CN3CCc4c([nH]c5ccccc45)[C@@H]3C[C@@H]2C1 | inactive | inactive | inactive | – |
| O[C@@H]1CC[C@H]2CN3CCc4c([nH]c5ccccc45)[C@@H]3C[C@@H]2C1 | inactive | inactive | inactive | – |
| CC[C@@H]1[C@H]2C[C@@H]3c4[nH]c5ccc(OC)cc5c4[C@@H](C(=O)[C@H]2CO)[C@@H]1N3C | inactive | inactive | inactive | – |
| C/C=C1\C[N+]2(C)CCc3c([nH]c4ccc(O)cc34)[C@@H]2C[C@@H]1CCO (some centres not stated) | inactive | inactive | inactive | – |
| CC[C@@]12CCCN3CCc4c(n(c5ccccc45)[C@H](OC)C1)[C@H]32 | inactive | inactive | inactive | – |
| C/C=C1\CN2CCc3c([nH]c4ccccc34)[C@@H]2C[C@@H]1CCO | inactive | inactive | inactive | 360 µM |
